How the values were obtained:
Assay type in all cases: in vivo, human
[1] = test system: onychiomycosis (fungal infection of the nailbed); test: Sildenafil treatment of onychiomycosis (fungal infection of the nailbed) (case report)
Description: In regards to other uses of cycli guanosine 3′,5′-monophosphate type five (cGMP PDE5) inhibitors, including the compound sildenafil, for which we have shown is effective in the treatment of diabetic foot ulcers, it is also within the concept of the present invention to treat other peripheral vascular diseases such as Raynaud's Phenomenon, including CREST syndrome, autoimmune diseases such as systemic lupus erythematosis, rheumatoid diseases and diabetic retinopathies. The treatment of the present invention would also be beneficial in peripheral and autonomic neuropathies or any other disease entity that results from small vessel disease and directly large vessel disease. […] The patient in this case was requesting treatment for erectile dysfunction and again the inventor discovered this unexpected beneficial result. The inventor has observed such results in varied diseases which have the common element of peripheral vascular disease or peripheral neuropathy. The beneficial effect of the method is believed to be due to increase vascular flow of the small vessels which aided the body in healing itself. Patient #4 suffered from erectile dysfunction. They also suffered from onychiomycosis (fungal infection of the nailbed). They were placed on sildenafil treatment taking one 50 mg pill on an as-needed basis.

[2] = Sildenafil treatment of erectile dysfunction in patients (case reports)
Protocol: Patient #2 was suffering from chronic changes of both lower extremities secondary to peripheral vascular disease and diabetes mellitus. […] Patient #4 suffered from erectile dysfunction. They also suffered from onychiomycosis (fungal infection of the nailbed). They were placed on sildenafil treatment taking one 50 mg pill on an as-needed basis.

[3] = Sildenafil treatment of chronic lower extremity changes secondary to peripheral vascular disease (case report); details: Patient #2; diabetes mellitus
Description: Patient #2 was suffering from chronic changes of both lower extremities secondary to peripheral vascular disease and diabetes mellitus.

[4] = Sildenafil treatment of diabetic foot ulcer in patients (case reports)
Description: During the treatment of-the erectile dysfunction it was noted that the foot ulcer was healing. This foot ulcer began approximately two years prior and the patient had been through vascular studies, had seen vascular surgeons, podiatrists, and had been in wound care clinics with minimal results at best. They had also been hospitalized for approximately a month on IV antibiotics, etc. and the threat was very real that the patient was going to require a below the knee amputation. The ulcer would appear to be healing at times only to reoccur to its pretreatment size and depth.

[5] = Patient #4, one 50 mg pill on an as-needed basis

Compound: CCCc1nn(C)c2c(=O)[nH]c(-c3cc(S(=O)(=O)N4CCN(C)CC4)ccc3OCC)nc12 [sildenafil, 5-[2-ethoxy-5-(4-methylpiperazin 1-ylsulphonyl)-phenyl]-1,6-dihydro-1-methyl-3-propylpyrazolo [4,3-d] pyrimidine-7-one]
- fungal infection (onychiomycosis) [1, 5]: cured
- onychiomycosis, particularly of the lower extremity ([1]; treated exclusively with sildenafil, without antifungal medication): resolved completely
- erectile dysfunction ([2]; Patient #2, diabetes mellitus and peripheral vascular disease): significantly improve
- erectile dysfunction [2, 5]: improved
- chronic changes of both lower extremities secondary to peripheral vascular disease [3]: significantly improved or resolved completely
- diabetic foot ulcer size after sildenafil treatment began ([4]; Patient #1, insulin dependent diabetic, sildenafil taken for erectile dysfunction, before daily dosing): the ulcer was decreasing in the size
- resolution of diabetic foot ulcer ([4]; Patient #1, 50 mg of sildenafil once a day, ulcer began approximately two years prior): complete resolution of the diabetic food ulcer in one month
- reoccurrence of diabetic foot ulcer ([4]; Patient #1, continued on 50 mg once a day for the past two years): without reoccurrence
- effectiveness in the treatment of foot ulcers related to diabetes ([4]; general statement, diabetic patients): very effective
